Test results published in publication PMC6736568, “Discovery of Novel Anti-cryptosporidial Activities From Natural Products by in vitro High-Throughput Phenotypic Screening” (Frontiers in Microbiology, 2019).
Like-named read-outs stand apart in the source and are kept apart here.

Legend:
[1] = tested on: Cryptosporidium parvum; assay: qRT-PCR assay of the growth of C. parvum in vitro in HCT-8 host cells (primary and secondary screening, EC50); format: cell-based; details: Cryptosporidium parvum, HCT-8; for inhibition at 10 µM: primary screening at 10 uM, read-out: Inhibition (%); for inhibition at 3.3 µM: secondary screening at 3.3 uM, read-out: % Inhibition (3.3 uM)
[2] = tested on: HCT-8 host cells (Hs18S)
[3] = in vitro
[4] = primary screening at 10 uM, treated vs control

Compound | inhibition at 10 µM [1] [%] | inhibition at 3.3 µM [1] [%] | Hs18S ΔCT [2, 4] | cytotoxicity at 10 µM [3] [%] | Hs18S ΔCT ([2]; human, 41 h, 10 μM) | cytotoxicity at 41 h, 10 µM ([3]; human) [%] | cytotoxicity at 41 h, 10 µM [3] [%]
O=C1C=C2C(=CCOC2O)O1 (stereo not drawn) [PATULIN] | 91.4 | 10 | 0.81 | 43 | – | – | –
C=C(C)[C@H]1CN[C@H](C(=O)O)[C@H]1CC(=O)O [KAINIC ACID] | -19.9 | – | -0.04 | -2.6 | – | – | –
O=c1c2cc(O)c(O)cc2oc2cc(O)c([C@@H]3O[C@H](CO)[C@@H](O)[C@H](O)[C@H]3O)c(O)c12 [MANGIFERIN] | -3.49 | – | – | – | 0.18 | 11.5 | –
Nc1nc2c(c(=O)[nH]1)N=C(CNc1ccc(C(=O)N[C@@H](CCC(=O)O)C(=O)O)cc1)CN2 [DIHYDROFOLIC ACID] | -11.9 | – | – | – | -0.36 | -28.7 | –
Cc1cc(O)c(C)c(O)c1C(=O)O [3-METHYLORSELLINIC ACID] | 30.8 | – | – | – | 0.05 | 3.6 | –
NCCCNCCCCNCCCN [SPERMINE] | -7.42 | – | – | – | -0.43 | -35.1 | –
CC[C@H](CC[C@@H](C)[C@H]1CC[C@H]2[C@@H]3CC=C4C[C@@H](O)CC[C@]4(C)[C@H]3CC[C@]12C)C(C)C [beta-SITOSTEROL] | 91.7 | 20 | 0.43 | 25.8 | – | – | –
CCN1C[C@]2(COC)[C@H](O)C[C@H](OC)[C@@]34[C@@H]5C[C@@]6(O)[C@H](OC(=O)c7ccccc7)[C@@H]5[C@@](OC(C)=O)([C@@H]([C@H](OC)[C@H]23)[C@@H]14)[C@@H](O)[C@@H]6OC [ACONITINE] | 2.84 | – | -0.16 | -11.7 | – | – | –
Cc1cc(=O)oc2cc(O)c(O)cc12 [4-METHYLESCULETIN] | -3.64 | – | 0.01 | 0.7 | – | – | –
C/C=C/c1ccc(OC)cc1 [ANETHOLE] | -5.3 | – | – | – | -0.08 | -5.8 | –
C[C@H]1[C@H](C)CC[C@]2(C(=O)O)CC[C@]3(C)C(=CC[C@@H]4[C@@]5(C)C[C@@H](O)[C@H](O)[C@@](C)(CO)[C@@H]5CC[C@]43C)[C@H]12 [ASIATIC ACID] | 25.1 | – | – | – | -0.29 | -22.7 | –
COC1=CC(=O)O[C@@H](/C=C/c2ccccc2)C1 [KAWAIN] | 16 | – | -0.15 | -10.9 | – | – | –
C=C1CCC2C(CC2(C)C)C(=O)CCC1O (stereo not drawn) [ISOKOBUSONE] | -33.5 | – | – | – | -0.25 | -18.7 | –
CC(C)C1=CC2=CC[C@@H]3[C@](C)(CCC[C@@]3(C)C(=O)O)[C@H]2CC1 [ABIETIC ACID] | -58.3 | – | -0.39 | -30.7 | – | – | –
C[C@@H]1O[C@@H](Oc2c(-c3ccc(O)c(O)c3)oc3cc(O)cc(O)c3c2=O)[C@H](O)[C@H](O)[C@H]1O [QUERCITRIN] | 3.89 | – | -0.65 | -57.2 | – | – | –
C[C@H](CCC(=O)O)[C@H]1CC[C@H]2[C@@H]3[C@H](O)C[C@@H]4C[C@H](O)CC[C@]4(C)[C@H]3CC[C@]12C [CHENODIOL] | 77.7 | – | – | – | 0.27 | 17.2 | –
CC(=O)O[C@H]1C[C@@H](OC(C)=O)C(C)(C)[C@@H]2C[C@@H](OC(C)=O)[C@]3(C)[C@H](CC[C@@]4(C)[C@H](c5ccoc5)OC(=O)[C@H]5O[C@@]534)[C@@]12C [KHIVORIN] | 52.4 | – | – | – | 0.12 | 8 | –
COC(=O)C[C@H]1C(C)(C)C(=O)[C@@H]2CC3=C4CC(=O)O[C@@H](c5ccoc5)[C@]4(C)CC[C@@H]3[C@@]1(C)C2=O [MEXICANOLIDE] | 31.5 | – | – | – | -0.17 | -12.3 | –
COc1cc2c(cc1OC)[C@@H]1C(=O)c3ccc(OC)c(CC=C(C)C)c3O[C@@H]1CO2 [ROTENONIC ACID, METHYL ETHER] | 11.8 | – | 0.30 | 18.7 | – | – | –
COC(=O)[C@@H]1C[C@H](OC(C)=O)C(=O)[C@H]2[C@@]1(C)CC[C@H]1C(=O)O[C@H](c3ccoc3)C[C@]21C [[…]] | 16.7 | – | 0.53 | 30.5 | – | – | –
COC(=O)c1c(C)cc(OC(=O)c2c(C)cc(O)c(C=O)c2O)c(C)c1O [ATRANORIN] | -45.9 | – | – | – | 1.02 | 50.7 | –
COc1cc2c(cc1OC)[C@@H]1C(=O)c3ccc4c(c3O[C@@H]1CO2)CC(C(C)C)O4 (stereo partly drawn) [DIHYDROROTENONE] | 10.4 | – | 0.76 | 40.9 | – | – | –
COC1=C(O)C(=O)c2c(cc3oc(C(C)=O)c(O)c3c2O)C1=O [RHODOCLADONIC ACID] | 1.58 | – | – | – | -0.03 | -2.1 | –
COc1cc([C@@H]2c3cc4c(cc3[C@H](O)[C@H]3COC(=O)[C@@H]23)OCO4)cc(OC)c1OC [PICROPODOPHYLLIN] | 79.4 | 56 | 0.94 | – | – | – | 47.8
O=C1c2cccc(O)c2C(=O)c2c(O)cccc21 [DANTHRON] | 23 | – | -0.12 | – | – | -8.6 | –
